From patent US20110098288A1, “SULFONAMIDES AS ZAP-70 INHIBITORS” (priority 2008, published 2011)
Structures can show the parent of a compound that is named as a salt.

Molecular target: T1, ZAP-70 (Homo sapiens, UniProt P43403)
T1 construct: endogenous in cells; host or cells: cell lysate
T1 sequence (P43403 1-619): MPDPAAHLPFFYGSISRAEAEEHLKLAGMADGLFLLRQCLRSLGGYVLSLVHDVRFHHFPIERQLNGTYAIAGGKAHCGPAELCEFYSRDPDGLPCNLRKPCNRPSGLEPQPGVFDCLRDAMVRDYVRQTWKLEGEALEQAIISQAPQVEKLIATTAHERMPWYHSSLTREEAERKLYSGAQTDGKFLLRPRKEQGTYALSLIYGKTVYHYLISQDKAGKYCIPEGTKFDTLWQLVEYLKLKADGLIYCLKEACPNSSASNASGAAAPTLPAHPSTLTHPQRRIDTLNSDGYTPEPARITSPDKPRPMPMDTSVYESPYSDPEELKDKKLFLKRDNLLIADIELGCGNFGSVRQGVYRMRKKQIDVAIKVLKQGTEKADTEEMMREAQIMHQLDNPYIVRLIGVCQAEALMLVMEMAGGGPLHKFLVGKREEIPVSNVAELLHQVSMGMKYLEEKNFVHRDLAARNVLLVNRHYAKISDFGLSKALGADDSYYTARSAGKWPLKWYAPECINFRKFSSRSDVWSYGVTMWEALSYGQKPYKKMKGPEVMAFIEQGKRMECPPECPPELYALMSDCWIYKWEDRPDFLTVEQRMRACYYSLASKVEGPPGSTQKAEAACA
Experiment: ZAP-70 kinobeads assay
Format: binding
Conditions: competition with immobilized aminopyrido-pyrimidine ligand 24 in cell lysate; ZAP-70 detected by dot blot
Description: The compounds of the present invention as described in the previous examples can be tested in the ZAP-70 kinobeads assay as described (EP-A 1862802 and WO-A 2007/137867). Briefly, test compounds (at various concentrations) and the affinity matrix with the immobilized aminopyrido-pyrimidine ligand 24 are added to cell lysate aliquots and allowed to bind to the proteins in the lysate sample. After the incubation time the beads with captured proteins are separated from the lysate. Bound proteins are then eluted and the presence ZAP-70 is detected and quantified using a specific antibody in a dot blot procedure and the Odyssey infrared detection system. Conventionally, ZAP-70 kinase activity can be measured using purified or recombinant enzyme in a solution-based assay with protein or peptide substrates (Isakov et al., 1996, J. Biol. Chem. 271(26), 15753-15761; Moffat et al., 1999, Bioorg. Med. Chem. Letters 9, 3351-3356).

| SMILES | IC50 |
| --- | --- |
| CS(=O)(=O)Nc1ccccc1Nc1nc(Nc2ccc(-n3cccn3)cc2)ncc1Cl [Example 207, N-(2-(2-(4-(1H-pyrazol-1-yl)phenylamino)-5-chloropyrimidin-4-ylamino)phenyl)methanesulfonamide] | 100 to 1000 nM |
| CS(=O)(=O)Nc1ccccc1Nc1nc(Nc2cccc(-n3cccn3)c2)ncc1F [Example 17, N-(2-(2-(3-(1H-pyrazol-1-yl)phenylamino)-5-fluoropyrimidin-4-ylamino)phenyl)methanesulfonamide] | 1000 to 10000 nM |
| CS(=O)(=O)Nc1ccccc1Nc1nc(Nc2cccc(-c3nnn[nH]3)c2)ncc1F [Example 190, N-(2-(2-(3-(1H-tetrazol-5-yl)phenylamino)-5-fluoropyrimidin-4-ylamino)phenyl)methanesulfonamide] | 1000 to 10000 nM |
| CCN(c1ccccc1Nc1nc(Nc2cc(C)cc(C)c2)ncc1F)S(C)(=O)=O [Example 155, N-(2-(2-(3,5-dimethylphenylamino)-5-fluoropyrimidin-4-ylamino)phenyl)-N-ethylmethanesulfonamide] | 1000 to 10000 nM |
| COc1cc(Nc2ncc(F)c(Nc3ccccc3NS(C)(=O)=O)n2)ccc1Cl [Example 10, N-(2-(2-(4-chloro-3-methoxyphenylamino)-5-fluoropyrimidin-4-ylamino)phenyl)methanesulfonamide] | 1000 to 10000 nM |
| CS(=O)(=O)Nc1ccccc1Nc1nc(Nc2ccc(CC(=O)O)cc2)ncc1Cl [Example 148, 2-(4-(5-chloro-4-(2-(methylsulfonamido)phenylamino)pyrimidin-2-ylamino)phenyl)acetic acid] | < 100 nM |
| Cc1nnnn1-c1ccc(Nc2ncc(F)c(Nc3ccccc3NS(C)(=O)=O)n2)cc1 [Example 199, N-(2-(5-fluoro-2-(4-(5-methyl-1H-tetrazol-1-yl)phenylamino)pyrimidin-4-ylamino)phenyl)methanesulfonamide] | 100 to 1000 nM |
| Cc1cc(C)n(-c2ccc(Nc3ncc(Cl)c(Nc4ccccc4NS(C)(=O)=O)n3)cc2)n1 [Example 210, N-(2-(5-chloro-2-(4-(3,5-dimethyl-1H-pyrazol-1-yl)phenylamino)pyrimidin-4-ylamino)phenyl)methanesulfonamide] | 100 to 1000 nM |
| CS(=O)(=O)Nc1ccccc1Nc1nc(Nc2ccc(OC(F)F)cc2)ncc1F [Example 27, N-(2-(2-(4-(difluoromethoxy)phenylamino)-5-fluoropyrimidin-4-ylamino)phenyl)methanesulfonamide] | 1000 to 10000 nM |
| CS(=O)(=O)Nc1ccccc1Nc1nc(Nc2cccc(Cl)c2)ncc1F [Example 12, N-(2-(2-(3-chlorophenylamino)-5-fluoropyrimidin-4-ylamino)phenyl)methanesulfonamide] | 1000 to 10000 nM |
| CS(=O)(=O)Nc1ccccc1Nc1nc(Nc2ccc3nn[nH]c3c2)ncc1F [Example 33, N-(2-(2-(1H-benzo[d][1,2,3]-triazol-6-ylamino)-5-fluoropyrimidin-4-ylamino)phenyl)methanesulfonamide] | 100 to 1000 nM |
| Cc1cc(C)n(-c2cccc(Nc3ncc(Cl)c(Nc4ccccc4NS(C)(=O)=O)n3)c2)n1 [Example 209, N-(2-(5-chloro-2-(3-(3,5-dimethyl-M-pyrazol-1-yl)phenylamino)pyrimidin-4-ylamino)phenyl)methanesulfonamide] | 1000 to 10000 nM |
| COc1ccc(Nc2nc(Nc3ccc(OC)c(OC)c3)ncc2Br)c(NS(C)(=O)=O)c1 [Example 179, N-(2-(5-bromo-2-(3,4-dimethoxyphenylamino)pyrimidin-4-ylamino)-5-methoxyphenyl)methanesulfonamide] | < 100 nM |
| COc1cc(Nc2ncc(F)c(Nc3ccccc3NS(=O)(=O)c3ccccc3)n2)cc(OC)c1OC [Example 47, N-(2-(5-fluoro-2-(3,4,5-trimethoxyphenylamino)pyrimidin-4-ylamino)phenyl)benzenesulfonamide] | 1000 to 10000 nM |
| CS(=O)(=O)Nc1ccccc1Nc1nc(Nc2ccc3c(c2)OCC(=O)N3)ncc1F [Example 23, N-(2-(5-fluoro-2-(3-oxo-3,4-dihydro-2H-benzo[b][1,4]oxazin-7-ylamino)pyrimidin-4-ylamino)phenyl)methanesulfonamide] | 100 to 1000 nM |
| COc1ccc(Nc2ncc(F)c(Nc3ccccc3NS(C)(=O)=O)n2)cc1Cl [Example 19, N-(2-(2-(3-chloro-4-methoxyphenylamino)-5-fluoropyrimidin-4-ylamino)phenyl)methanesulfonamide] | 1000 to 10000 nM |

| SMILES | IC50 |
| --- | --- |
| COc1cc(Nc2ncc(F)c(Nc3ccccc3NS(C)(=O)=O)n2)cc(OC)c1OCCN1CCCC1 [Example 75, N-(2-(2-(3,5-dimethoxy-4-(2-(pyrrolidin-1-yl)ethoxy)phenylamino)-5-fluoropyrimidin-4-ylamino)phenyl)methanesulfonamide] | < 100 nM |
| COc1cc(Nc2ncc([N+](=O)[O-])c(Nc3ccccc3NS(C)(=O)=O)n2)cc(OC)c1OC [Example 68, N-(2-(5-nitro-2-(3,4,5-trimethoxyphenylamino)pyrimidin-4-ylamino)phenyl)methanesulfonamide] | 1000 to 10000 nM |
| COc1cc(Nc2ncc(F)c(Nc3ccccc3NS(=O)(=O)CCN(C)C)n2)cc(OC)c1OC [Example 61, 2-(Dimethylamino)-N-(2-(5-fluoro-2-(3,4,5-trimethoxyphenylamino)pyrimidin-4-ylamino)phenyl)ethanesulfonamide] | 1000 to 10000 nM |
| CS(=O)(=O)Nc1ccccc1Nc1nc(Nc2ccc(-n3cnnn3)cc2)ncc1F [Example 195, N-(2-(2-(4-(1H-tetrazol-1-yl)phenylamino)-5-fluoropyrimidin-4-ylamino)phenyl)methanesulfonamide] | 1000 to 10000 nM |
| CS(=O)(=O)Nc1ccccc1Nc1nc(Nc2cccc(-n3cncn3)c2)ncc1Cl [Example 211, N-(2-(2-(3-(1H-1,2,4-triazol-1-yl)phenylamino)-5-chloropyrimidin-4-ylamino)phenyl)methanesulfonamide] | 100 to 1000 nM |
| CS(=O)(=O)Nc1ccccc1Nc1nc(Nc2ccc(-n3cncn3)cc2)ncc1Cl [Example 212, N-(2-(2-(4-(1H-1,2,4-triazol-1-yl)phenylamino)-5-chloropyrimidin-4-ylamino)phenyl)methanesulfonamide] | 100 to 1000 nM |
| CCOC(=O)COc1ccc(Nc2ncc(F)c(Nc3ccccc3NS(C)(=O)=O)n2)cc1 [Example 144, Ethyl 2-(4-(5-fluoro-4-(2-(methylsulfonamido)phenylamino)pyrimidin-2-ylamino)phenoxy)acetate hydrochloride] | 1000 to 10000 nM |
| CS(=O)(=O)Nc1ccccc1Nc1nc(Nc2ccccc2)ncc1Br [Example 102, N-(2-(5-bromo-2-(phenylamino)pyrimidin-4-ylamino)phenyl)methanesulfonamide hydrochloride] | 100 to 1000 nM |
| Cc1nc(-c2cccc(Nc3ncc(Cl)c(Nc4ccccc4NS(C)(=O)=O)n3)c2)no1 [Example 208, N-(2-(5-chloro-2-(3-(5-methyl-1,2,4-oxadiazol-3-yl)phenylamino)pyrimidin-4-ylamino)phenyl)methanesulfonamide] | 100 to 1000 nM |
| Cc1cccc(Nc2nc(Nc3cccc(OC(C)C)c3)ncc2F)c1NS(C)(=O)=O [Example 121, N-(2-(5-fluoro-2-(3-isopropoxyphenylamino)pyrimidin-4-ylamino)-6-methylphenyl)methanesulfonamide] | 1000 to 10000 nM |
| CS(=O)(=O)Nc1ccccc1Nc1nc(Nc2cccc(-n3cnnn3)c2)ncc1Br [Example 216, N-(2-(2-(3-(1H-tetrazol-1-yl)phenylamino)-5-bromopyrimidin-4-ylamino)phenyl)methanesulfonamide] | 100 to 1000 nM |
| CS(=O)(=O)Nc1ccccc1Nc1nc(Nc2ccccc2)ncc1F [Example 34, N-(2-(5-fluoro-2-(phenylamino)pyrimidin-4-ylamino)phenyl)methanesulfonamide] | 1000 to 10000 nM |
| COc1cc(Nc2ncc(F)c(Nc3cccc(C)c3NS(C)(=O)=O)n2)cc(OCC2CC2)c1OC [Example 120, N-(2-(2-(3-(cyclopropylmethoxy)-4,5-dimethoxyphenylamino)-5-fluoropyrimidin-4-ylamino)-6-methylphenyl)methanesulfonamide] | 100 to 1000 nM |
| CCN(c1ccccc1Nc1nc(Nc2ccc(OC)cc2)ncc1F)S(C)(=O)=O [Example 156, N-ethyl-N-(2-(5-fluoro-2-(4-methoxyphenylamino)pyrimidin-4-ylamino)phenyl)methanesulfonamide] | 100 to 1000 nM |
| Cc1nc(-c2ccc(Nc3ncc(F)c(Nc4ccccc4NS(C)(=O)=O)n3)cc2)no1 [Example 197, N-(2-(5-fluoro-2-(4-(5-methyl-1,2,4-oxadiazol-3-yl)phenylamino)pyrimidin-4-ylamino)phenyl)methanesulfonamide] | 1000 to 10000 nM |
